Test results published in EP1148124A1 (priority 1999, dated 2000).

Test system: aryl hydrocarbon receptor
Experiment: Reporter assay (No. 1), ligand responsive reporter gene (firefly luciferase, pGV-Ya-XREx5), clone of Example 2
Assay type: cell-based, mouse
Details: about 40 hours; for Amount of luminescence by firefly luciferase (from pGV-Ya-XREx5) Ratio: ratio to 0 pg/ml
Source text: Separately, plasmid pGV-Ya-XREx5 (ligand responsive reporter gene containing plasmid) constructed in Example 1 was digested with Bam HI. Further, plasmid pRL-TK (cell number reporter gene containing plasmid; marketed by Toyo Ink) containing the sea pansy luciferase gene used as the cell number reporter gene was digested with Bam HI, and neomycin resistance (aminoglycoside phosphotransferase) gene containing plasmid pRc/RSV (available from INVITROGEN) was digested with Hind III. These three digested plasmids, i.e., Bam HI digested pGV-Ya-XREx5 (2.8 µg), Bam HI digested pRL-TK (2.8 µg), and Hind III digested pRc/RSV (0.5 µg), were then mixed with 300 µl of αMEM medium (mixture A), while 36 µl of lipofectin (available from GIBCO-BRL) was mixed with 300 µl of αMEM medium (mixture B). After being left at room temperature for 30 minutes, mixtures A and B were combined together and left at room temperature for 10 minutes. The Hepa1clc7 cells cultured overnight as described above were then washed once with αMEM medium, to which there was added a solution prepared by adding and mixing additional 5.4 ml of αMEM medium to the above mixture (A + B). Culturing of the resulting mixture was carried out for 5 hours. The medium was then replaced with 10% serum containing αMEM medium, followed by further culturing overnight. Subsequently, the cells were scratched from the petri dishes and collected, and the collected cells were suspended in 10% serum containing αMEM medium to have the total volume of 100 ml. The resulting cell suspension was plated on 96 well plates at a ratio of 100 µl/well. After these plates were cultured overnight, a medium prepared by dissolving geneticin (hereinafter referred to as "G418") in 10% serum containing αMEM medium to have a concentration of 1.6 mg/ml was added at a ratio of 100 µl/well (G418 final concentration 800 µg/ml). Culturing was further continued for 3 weeks, during which the medium was replaced with 10% serum containing αMEM medium containing 800 µg/ml G418 at a rate of once per week. The volume of the medium was set at 200 µl/well. After said 3 weeks, cells were scratched from the wells in which colony formation had been observed, and collected (for 192 wells), and the collected cells were divided into three and independently plated on different plates, followed by continuous culturing for 4 days. To the first plate, only DMSO was added (solvent control), and to the second plate, 3-methylcholanthrene (hereinafter referred to as "3-MC") dissolved in DMSO was added so that the final concentration of 3-MC in the second plate came to 10 µM per well. The first and second plates were then cultured overnight. The third plate was further cultured as the master plate without any addition. From each well of each plate, to which DMSO or 3-MC had been added, the medium was removed, and the wells were washed twice with PBS(-) (sodium chloride, 8000 mg/l; potassium chloride, 200 mg/l; sodium monohydrogenphosphate (anhydrous), 1150 mg/l; […] dihydrogenphosphate (anhydrous), 200 mg/l; marketed by Nissui Pharmaceutical). A 5-fold diluted cell lysis buffer of PicaGene dual kit (marketed by Toyo Ink) was added to the wells in 15 µl/well, followed by leaving the plates at room temperature for 30 minutes or longer to cause cell lysis, to give cell extracts. These plates were set on a luminometer LB96P with an automatic enzyme substrate injector (available from Berthold), and PicaGene luminescence reagent II and sea pansy luminescence reagent (PicaGene dual kit, marketed by Toyo Ink) were automatically dispensed each in 50 µl, followed by continuous measurement for the amount of luminescence.
The clone screened in Example 2 was plated on 96-well plates at a ratio of 40,000 cells/well, followed by culturing overnight. […]

Compound: Clc1cc2c(cc1Cl)Oc1cc(Cl)c(Cl)cc1O2 [TCDD, 2,3,7,8-tetrachlorodibenzo-p-dioxin]
- Amount of luminescence by firefly luciferase (from pGV-Ya-XREx5) Measured value (final conc. 0.02 pg/ml): 0.517 x 10^4
- Amount of luminescence by firefly luciferase (from pGV-Ya-XREx5) Ratio (final conc. 0.02 pg/ml): 1.1
- Amount of luminescence by firefly luciferase (from pGV-Ya-XREx5) Measured value (final conc. 0.2 pg/ml): 0.532 x 10^4
- Amount of luminescence by firefly luciferase (from pGV-Ya-XREx5) Ratio (final conc. 0.2 pg/ml): 1.1
- Amount of luminescence by firefly luciferase (from pGV-Ya-XREx5) Measured value (final conc. 2 pg/ml): 0.873 x 10^4
- Amount of luminescence by firefly luciferase (from pGV-Ya-XREx5) Ratio (final conc. 2 pg/ml): 1.8
- Amount of luminescence by firefly luciferase (from pGV-Ya-XREx5) Measured value (final conc. 20 pg/ml): 3.14 x 10^4
- Amount of luminescence by firefly luciferase (from pGV-Ya-XREx5) Ratio (final conc. 20 pg/ml): 6.5
- Amount of luminescence by firefly luciferase (from pGV-Ya-XREx5) Measured value (final conc. 200 pg/ml): 4.46 x 10^4
- Amount of luminescence by firefly luciferase (from pGV-Ya-XREx5) Ratio (final conc. 200 pg/ml): 9.2
- Amount of luminescence by firefly luciferase (from pGV-Ya-XREx5) Measured value (final conc. 2000 pg/ml): 4.17 x 10^4
- Amount of luminescence by firefly luciferase (from pGV-Ya-XREx5) Ratio (final conc. 2000 pg/ml): 8.6
- Amount of luminescence by firefly luciferase (from pGV-Ya-XREx5) Measured value (final conc. 20000 pg/ml): 4.49 x 10^4
- Amount of luminescence by firefly luciferase (from pGV-Ya-XREx5) Ratio (final conc. 20000 pg/ml): 9.2
